Measured values: ChEMBL document CHEMBL6120997, “Macrocyclic Compounds with Diverse Skeletons from the Roots of Myrica nana and Their Spasmolytic Activity” (J Nat Prod, 2025)
Calls of active or inactive are those of the source. The rule behind the calls is not given here.

Experiments:
Ileum [1] = assay: Ex vivo spasmolytic activity in ACh-induced contractions in Sprague-Dawley rat ileum incubated for 5 mins; assay type: functional, tissue-based
Ileum [2] = assay: Ex vivo spasmolytic activity in ACh-induced contractions in Sprague-Dawley rat ileum at 0.5 to 8 uM incubated for 5 mins in presence of 4-AP relative to control; assay type: functional; details: dose 0.5-8 µM
Ileum [3] = assay: Ex vivo spasmolytic activity in ACh-induced contractions in Sprague-Dawley rat ileum at 2 uM incubated for 5 mins; assay type: functional, tissue-based
Ileum [4] = assay: Ex vivo spasmolytic activity in ACh-induced contractions in Sprague-Dawley rat ileum incubated for 5 mins in presence of 4-AP; assay type: functional, tissue-based
Ileum [5] = assay: Ex vivo spasmolytic activity in CaCl2-induced contractions in Sprague-Dawley rat ileum at 1 to 2 uM incubated for 15 mins; assay type: functional, tissue-based; details: dose 1-2 µM
Ileum [6] = assay: Ex vivo spasmolytic activity in ACh-induced contractions in Sprague-Dawley rat ileum incubated for 5 mins in presence of TEA; assay type: functional, tissue-based
Ileum [7] = assay: Ex vivo spasmolytic activity in ACh-induced contractions in Sprague-Dawley rat ileum at 0.5 to 8 uM incubated for 5 mins relative to control; assay type: functional; details: dose 0.5-8 µM
Ileum [8] = assay: Ex vivo spasmolytic activity in ACh-induced contractions in Sprague-Dawley rat ileum incubated for 5 mins in presence of GLIB; assay type: functional, tissue-based
Ileum [9] = assay: Ex vivo spasmolytic activity in ACh-induced contractions in Sprague-Dawley rat ileum at 0.5 to 8 uM incubated for 5 mins in presence of CsCl relative to control; assay type: functional; details: dose 0.5-8 µM
Ileum [10] = assay: Ex vivo spasmolytic activity in ACh-induced contractions in Sprague-Dawley rat ileum incubated for 5 mins in presence L-NAME; assay type: functional, tissue-based
Ileum [11] = assay: Ex vivo spasmolytic activity in ACh-induced contractions in Sprague-Dawley rat ileum at 0.5 to 8 uM incubated for 5 mins in presence L-NAME relative to control; assay type: functional; details: dose 0.5-8 µM
Ileum [12] = assay: Ex vivo spasmolytic activity in ACh-induced contractions in Sprague-Dawley rat ileum incubated for 5 mins in presence ODQ; assay type: functional, tissue-based
Ileum [13] = assay: Ex vivo spasmolytic activity in ACh-induced contractions in Sprague-Dawley rat ileum at 0.5 to 8 uM incubated for 5 mins in presence of TEA relative to control; assay type: functional; details: dose 0.5-8 µM
Ileum [14] = assay: Ex vivo spasmolytic activity in ACh-induced contractions in Sprague-Dawley rat ileum at 0.5 to 8 uM incubated for 5 mins in presence of GLIB relative to control; assay type: functional; details: dose 0.5-8 µM
Ileum [15] = assay: Ex vivo spasmolytic activity in ACh-induced contractions in Sprague-Dawley rat ileum at 0.5 to 8 uM incubated for 5 mins in presence ODQ relative to control; assay type: functional; details: dose 0.5-8 µM
Ileum [16] = assay: Ex vivo spasmolytic activity in ACh-induced contractions in Sprague-Dawley rat ileum incubated for 5 mins in presence of CsCl; assay type: functional, tissue-based

SMILES	EC50 (Ileum [1]) [µM]	further results
COc1c2cc(c(O[C@@H]3O[C@H](CO)[C@@H](O)[C@H](O)[C@H]3O)c1OC)CCCC[C@H](O)CCc1ccc(O)c-2c1	2.4	
COc1c2cc(c(O[C@@H]3O[C@H](CO)[C@@H](O)[C@H](O)[C@H]3O)c1OC)CCCC[C@@H](O)CCc1ccc(O)c-2c1	3.2	
COc1c2cc(c(O[C@@H]3O[C@H](CO)[C@@H](O)[C@H](O)[C@H]3O)c1OC)CCCCC(=O)[C@@H](O)Cc1ccc(O)c-2c1	2.4	
COc1cc2cc(c1OC)-c1cc(ccc1O)C[C@H](O)C(=O)CCC2	1.4	Emax (Ileum [2]): 71.9%; Activity (Ileum [3]): Active; Activity Less Than Dichloromethane; EC50 (Ileum [4]): 1.9 µM; Activity (Ileum [5]): Active; EC50 (Ileum [6]): 1.5 µM; Emax (Ileum [7]): 79.8%; EC50 (Ileum [8]): 1.7 µM; Emax (Ileum [9]): 82.7%; EC50 (Ileum [10]): 5.1 µM; Emax (Ileum [11]): 43%; EC50 (Ileum [12]): 1.6 µM; Emax (Ileum [13]): 60.8%; Emax (Ileum [14]): 84.9%; Emax (Ileum [15]): 81.7%; EC50 (Ileum [16]): 1.6 µM
COc1c2ccc(c1O)CCCCC(=O)CCc1ccc(O)c(c1)O2	3.8	
COc1c2cc(c(O[C@@H]3O[C@H](CO)[C@@H](O)[C@H](O)[C@H]3O)c1OC)CCCC(=O)[C@@H](O)Cc1ccc(O)c-2c1	1.6	
COc1cc2cc(c1OC)-c1cc(ccc1O)CCC(=O)CCCC2	5	
COc1c2ccc(c1O[C@@H]1O[C@H](CO)[C@@H](O)[C@H](O)[C@H]1O)CCCCC(O)CCc1ccc(O)c(c1)O2 (stereo partly drawn)	3.6	
COc1c2cc(c(O[C@@H]3O[C@H](CO)[C@@H](O)[C@H](O)[C@H]3O)c1OC)CCCC[C@@H](OC(C)=O)CCc1ccc(O)c-2c1	2.8	
CCN(CC)CCOC(=O)C1(C2CCCCC2)CCCCC1 [DICYCLOMINE]	0.6	

The next lines start with results.

EC50 (Ileum [1]) [µM]	SMILES	further results
2.9	COc1c2cc(c(O)c1OC)CCCC[C@@H](O)CCc1ccc(O)c-2c1	
4.6	COc1c2cc(c(OC)c1OC)-c1cc(ccc1O)[C@H](O)CC(=O)CCCC2	
1.5	COc1c2cc(c(OC)c1O)-c1cc(ccc1O)CC[C@H](O)CCCC2	
2.8	COc1c2cc(c(OC)c1OC)-c1cc(ccc1O)C[C@@H](O)[C@@H](O)CCCC2	
5.1	COc1c2cc(c(O)c1OC)CCCC(=O)[C@@H](O)Cc1ccc(O)c-2c1	
3.7	COc1c2cc(c(O)c1OC)CCCC[C@@H](OC(C)=O)CCc1ccc(O)c-2c1	
2.9	COc1c2cc(c(O)c1OC)CCCCC(=O)CCc1ccc(O)c-2c1 [MYRICANONE]	
2.3	COc1c2cc(c(O[C@@H]3O[C@H](CO)[C@@H](O)[C@H](O)[C@H]3O)c1OC)CCCCC(=O)CCc1ccc(O)c-2c1	
